From patent US20030055052A1, “FAP-activated anti-tumor compounds” (priority 2000, published 2003)

Target: T1, FAP (Homo sapiens, UniProt Q12884)
T1 construct: expressed in transfected cells; host or cells: human embryonic kidney 293 cells stably transfected with pFAP.38; cell extract used
T1 sequence (Q12884 1-760): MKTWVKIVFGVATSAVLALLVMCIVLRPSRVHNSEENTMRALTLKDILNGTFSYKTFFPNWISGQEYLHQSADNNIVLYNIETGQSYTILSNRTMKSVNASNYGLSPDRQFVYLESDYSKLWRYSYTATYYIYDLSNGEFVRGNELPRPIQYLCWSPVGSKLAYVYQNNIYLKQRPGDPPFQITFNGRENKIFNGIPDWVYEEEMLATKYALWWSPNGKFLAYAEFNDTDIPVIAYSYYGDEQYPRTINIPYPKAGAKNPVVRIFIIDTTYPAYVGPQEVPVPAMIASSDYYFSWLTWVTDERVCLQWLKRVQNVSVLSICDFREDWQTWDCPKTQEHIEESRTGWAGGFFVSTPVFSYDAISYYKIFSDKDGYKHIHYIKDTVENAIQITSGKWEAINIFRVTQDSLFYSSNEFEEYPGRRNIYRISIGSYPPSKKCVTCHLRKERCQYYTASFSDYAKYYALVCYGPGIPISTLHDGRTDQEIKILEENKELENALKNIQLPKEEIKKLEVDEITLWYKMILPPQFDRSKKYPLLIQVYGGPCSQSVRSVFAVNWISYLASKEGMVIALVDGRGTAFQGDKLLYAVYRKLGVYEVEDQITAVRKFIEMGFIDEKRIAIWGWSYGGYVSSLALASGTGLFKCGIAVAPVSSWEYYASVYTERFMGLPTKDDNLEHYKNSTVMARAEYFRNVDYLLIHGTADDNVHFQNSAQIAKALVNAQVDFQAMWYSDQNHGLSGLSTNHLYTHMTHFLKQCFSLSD
Assay: Assay for cleavage of AMCA substrates by FAP
Assay type: biochemical
Conditions: 1 ng FAP enzyme (FAP-transfected 293 cell extract), 20 μl 2.5 mM substrate, room temperature, 1 hour; control 293 extract subtracted
Procedure: Assay for Cleavage of AMCA Substrates by FAP:
Cell extract from 293 cells stably transfected with FAP prepared as described (see Park, et al., Fibroblast Activation Protein, a Dual Specificity Serine Protease expressed in human tumor stromal fibroblasts. (1999) J. Biol. Chem. 36505-12.). A similar extract was also prepared from parental 293 control cells without FAP. The FAP concentration in the FAP-transfected cell extract was estimated by immunoassay and 1 ng enzyme (diluted in buffer A) was used per assay. FAP-negative 293 control cell extract was used at the same dilution (also in buffer A) as a negative control. Substrate was initially dissolved in dimethylformamide at a concentration of 200 mM and diluted in buffer A to a final concentration of 2.5 mM. A few substrates were not soluble at this concentration and had to be diluted further.
10 μl 10% DMSO in buffer A
70 ll diluted FAP cell extract containing 1 ng FAP enzyme (OR control 293 cell extract without FAP)
Mix, incubate at room temperature for 1 hour, and measure fluorescence in Fluorostar fluorimeter at the following wavelengths:
AMCA conjugates: Excitation: 390 nm, Emission: 440 nm.
The fluorescence measured in the samples treated with control 293 control cell extracts without FAP is subtracted from the values measured in the samples treated with 1 ng FAP enzyme.

| Substance | Cleavage | Turnover |
| --- | --- | --- |
| Z-Imi-Ala-Gly-Pro-AMCA | 0.61 µM | 0.12% |
| Z-Thz-Ala-Gly-Pro-AMCA-OH | 1.11 µM | 0.22% |
